Experiments:
Format in all cases: in vivo
[1] = system: nightshade (eastern black nightshade, Solanum ptycanthum); assay: Test B pre-/postemergence plant response; settings: Preemergence
How it was run: (§1)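 Test compounds, formulated in a non-phytotoxic solvent mixture with surfactant, are applied to the soil surface (loam and sand blend) right after seeding, or sprayed over plants at the 1- to 4-leaf stage grown in peat moss/vermiculite medium. After 13 to 15 days under glasshouse conditions, each species is scored visually from 0 (no effect) to 100 (complete control) against controls.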

[2] = system: galium (catchweed bedstraw, Galium aparine); assay: Test B pre-/postemergence plant response; settings: Preemergence
How it was run: as §1

[3] = system: sunflower (common oilseed sunflower, Helianthus annuus); assay: Test B pre-/postemergence plant response; settings: Preemergence
How it was run: as §1

wild oat (Avena fatua) = assay: Test B pre-/postemergence plant response
How it was run: as §1

[4] = system: goosegrass (Eleusine indica); assay: Test B pre-/postemergence plant response; settings: Preemergence, 62 g ai/ha; scale 0 to 100 (0 no effect, 100 complete control)
[5] = system: Italian ryegrass (Lolium multiflorum); assay: Test D pre-/postemergence plant response; settings: Postemergence
How it was run: (§2)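 Both preemergence and postemergence treatments were made at the same time, with the compound in a non-phytotoxic, surfactant-containing solvent mixture. Plants grew in a greenhouse for 14–21 days before visual evaluation, scored from 0 (no effect) to 100 (complete control).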

[6] = system: johnsongrass (Sorghum halepense); assay: Test D pre-/postemergence plant response; settings: Postemergence
How it was run: as §2

[7] = system: groundsel (common groundsel, Senecio vulgaris); assay: Test D pre-/postemergence plant response; settings: Postemergence
How it was run: as §2

[8] = system: prickly sida (Sida spinosa); assay: Test D pre-/postemergence plant response; settings: Postemergence
How it was run: as §2

[9] = system: Surinam grass (Brachiaria decumbens); assay: Test D pre-/postemergence plant response; settings: Postemergence
How it was run: as §2

[10] = system: nutsedge (purple nutsedge, Cyperus rotundus); assay: Test D pre-/postemergence plant response; settings: Postemergence
How it was run: as §2

[11] = system: field bindweed (Convolvulus arvensis); assay: Test D pre-/postemergence plant response; settings: Postemergence
How it was run: as §2

[12] = system: guineagrass (Panicum maximum); assay: Test D pre-/postemergence plant response; settings: Postemergence
How it was run: as §2

[13] = 31 g ai/ha, scale 0 to 100 (0 no effect, 100 complete control)
[14] = 62 g ai/ha, scale 0 to 100 (0 no effect, 100 complete control)
[15] = 250 g ai/ha, Preemergence, 0 to 100 scale
[16] = Postemergence, 62 g ai/ha, scale 0 (no effect) to 100 (complete control), 13 to 15 days
[17] = Postemergence, 125 g ai/ha, visual rating after 13 to 15 days, scale 0 (no effect) to 100 (complete control)
[18] = Preemergence, 31 g ai/ha, scale 0 to 100 (0 no effect, 100 complete control)
[19] = Preemergence, 125 g ai/ha, 0 to 100 scale
[20] = 125 g ai/ha, scale 0 to 100 (0 no effect, 100 complete control)
[21] = 250 g ai/ha, scale 0 to 100 (0 no effect, 100 complete control)
[22] = 125 g ai/ha, scale 0 to 100, 0 no effect, 100 complete control

Cc1ccccc1-n1c(-c2cccc(Cl)c2)ncc(C(=O)C2=C(O)CCCC2=O)c1=O [Compound 36]
Plant response rating, Nightshade ([1]; 250 g ai/ha, 0 to 100 scale): 98 | Plant response rating, Nightshade [1, 13]: 80 | Plant response rating, Nightshade [1, 14]: 95 | Nightshade plant response rating ([1]; 125 g ai/ha, 0 to 100 scale): 95 | Plant response rating, Galium ([2]; 250 g ai/ha, 0 to 100 scale): 95 | Plant response rating, Galium [2, 13]: 10 | Plant response rating, Galium [2, 14]: 80 | Galium plant response rating ([2]; 125 g ai/ha, 0 to 100 scale): 80 | Plant response rating, Sunflower ([3]; 250 g ai/ha, 0 to 100 scale): 85 | Plant response rating, Sunflower [3, 13]: 0 | Sunflower plant response rating ([3]; 125 g ai/ha, 0 to 100 scale): 55 | Plant response rating, Oat, Wild (wild oat (Avena fatua); [15]): 0 | Plant response rating, Oat, Wild (wild oat (Avena fatua); [16]): 75 | Plant response rating, Oat, Wild (wild oat (Avena fatua); [17]): 75 | Plant response rating, Oat, Wild (wild oat (Avena fatua); [18]): 0 | Oat, Wild plant response rating (wild oat (Avena fatua); [19]): 0 | Plant response rating, Goosegrass [4]: 90

O=C1CCCC(O)=C1C(=O)c1cnc(-c2ccccc2)n(-c2cccc(Br)c2)c1=O [Compound 38]
Plant response rating, Nightshade ([1]; 250 g ai/ha, 0 to 100 scale): 100 | Plant response rating, Nightshade [1, 13]: 90 | Plant response rating, Nightshade [1, 14]: 95 | Nightshade plant response rating ([1]; 125 g ai/ha, 0 to 100 scale): 98 | Plant response rating, Galium ([2]; 250 g ai/ha, 0 to 100 scale): 85 | Plant response rating, Galium [2, 13]: 0 | Plant response rating, Galium [2, 14]: 40 | Galium plant response rating ([2]; 125 g ai/ha, 0 to 100 scale): 85 | Plant response rating, Sunflower ([3]; 250 g ai/ha, 0 to 100 scale): 75 | Plant response rating, Sunflower [3, 13]: 0 | Sunflower plant response rating ([3]; 125 g ai/ha, 0 to 100 scale): 25 | Plant response rating, Oat, Wild (wild oat (Avena fatua); [15]): 20 | Plant response rating, Oat, Wild (wild oat (Avena fatua); [16]): 75 | Plant response rating, Oat, Wild (wild oat (Avena fatua); [17]): 80 | Plant response rating, Oat, Wild (wild oat (Avena fatua); [18]): 0 | Oat, Wild plant response rating (wild oat (Avena fatua); [19]): 0 | Plant response rating, Goosegrass [4]: 100

Cc1c(Cl)cccc1-n1c(-c2ccccc2)ncc(C(=O)C2=C(O)CCCC2=O)c1=O [Compound 40]
Plant response rating, Nightshade ([1]; 250 g ai/ha, 0 to 100 scale): 100 | Plant response rating, Nightshade [1, 13]: 65 | Plant response rating, Nightshade [1, 14]: 98 | Nightshade plant response rating ([1]; 125 g ai/ha, 0 to 100 scale): 98 | Plant response rating, Galium ([2]; 250 g ai/ha, 0 to 100 scale): 90 | Plant response rating, Galium [2, 13]: 50 | Plant response rating, Galium [2, 14]: 70 | Galium plant response rating ([2]; 125 g ai/ha, 0 to 100 scale): 85 | Plant response rating, Sunflower ([3]; 250 g ai/ha, 0 to 100 scale): 80 | Plant response rating, Sunflower [3, 13]: 20 | Sunflower plant response rating ([3]; 125 g ai/ha, 0 to 100 scale): 75 | Plant response rating, Oat, Wild (wild oat (Avena fatua); [15]): 30 | Plant response rating, Oat, Wild (wild oat (Avena fatua); [16]): 85 | Plant response rating, Oat, Wild (wild oat (Avena fatua); [17]): 90 | Plant response rating, Oat, Wild (wild oat (Avena fatua); [18]): 0 | Oat, Wild plant response rating (wild oat (Avena fatua); [19]): 0 | Plant response rating, Goosegrass [4]: 98

CCCCn1c(-c2cc(F)cc(F)c2)ncc(C(=O)C2=C(O)C3CCC(C3)C2=O)c1=O (stereo not shown) [Compound 245]
Plant response rating, Ryegrass, Italian ([5]; 31 g ai/ha, scale 0 to 100): 5 | Plant response rating, Ryegrass, Italian [5, 14]: 5 | Plant response rating, Ryegrass, Italian [5, 20]: 20 | Plant response rating, Ryegrass, Italian [5, 21]: 50 | Plant response rating, Johnsongrass ([6]; 31 g ai/ha, scale 0 to 100): 70 | Plant response rating, Johnsongrass [6, 14]: 75 | Plant response rating, Johnsongrass [6, 20]: 75 | Plant response rating, Johnsongrass [6, 21]: 75 | Plant response rating, Groundsel ([7]; 31 g ai/ha, scale 0 to 100): 95 | Plant response rating, Groundsel [7, 14]: 100 | Plant response rating, Groundsel [7, 20]: 100 | Plant response rating, Groundsel [7, 21]: 100 | Plant response rating, Prickly Sida ([8]; 31 g ai/ha, scale 0 to 100): 30 | Plant response rating, Prickly Sida [8, 14]: 50 | Plant response rating, Prickly Sida [8, 20]: 50 | Plant response rating, Prickly Sida [8, 21]: 70 | Plant response rating, Surinam Grass ([9]; 31 g ai/ha, scale 0 to 100): 75 | Plant response rating, Surinam Grass [9, 14]: 75 | Plant response rating, Surinam Grass [9, 20]: 75 | Plant response rating, Surinam Grass [9, 21]: 75 | Plant response rating, Nutsedge, Purple ([10]; 31 g ai/ha, scale 0 to 100): 5 | Plant response rating, Nutsedge, Purple [10, 14]: 5 | Plant response rating, Nutsedge, Purple [10, 20]: 5 | Plant response rating, Nutsedge, Purple [10, 21]: 20 | Plant response rating, Field Bindweed ([11]; 31 g ai/ha, scale 0 to 100): 50 | Plant response rating, Field Bindweed [11, 14]: 50 | Plant response rating, Field Bindweed [11, 20]: 60 | Plant response rating, Field Bindweed [11, 21]: 70 | Plant response rating, Guineagrass ([12]; 31 g ai/ha, scale 0 to 100): 75 | Plant response rating, Guineagrass [12, 14]: 75 | Plant response rating, Guineagrass [12, 20]: 75 | Plant response rating, Guineagrass [12, 21]: 85 | Plant response rating, Nightshade [1, 13]: 98 | Plant response rating, Nightshade [1, 14]: 100 | Plant response rating, Nightshade [1, 22]: 100 | Nightshade plant response rating ([1]; 250 g ai/ha, 0 to 100 scale): 100 | Plant response rating, Galium [2, 13]: 20 | Plant response rating, Galium [2, 14]: 60 | Plant response rating, Galium [2, 22]: 95 | Galium plant response rating ([2]; 250 g ai/ha, 0 to 100 scale): 95 | Plant response rating, Sunflower [3, 13]: 45 | Plant response rating, Sunflower [3, 14]: 70 | Plant response rating, Sunflower [3, 22]: 80 | Sunflower plant response rating ([3]; 250 g ai/ha, 0 to 100 scale): 95 | Plant response rating, Oat, Wild (wild oat (Avena fatua); Postemergence, 31 g ai/ha, 0 to 100 scale (0 no effect, 100 complete control)): 70 | Plant response rating, Oat, Wild (wild oat (Avena fatua); Postemergence, 62 g ai/ha, scale 0 to 100 (0 no effect, 100 complete control)): 85 | Plant response rating, Oat, Wild (wild oat (Avena fatua); Postemergence, 125 g ai/ha, scale 0 (no effect) to 100 (complete control), 13 to 15 days): 85 | Plant response rating, Oat, Wild (wild oat (Avena fatua); Postemergence, 250 g ai/ha, scale 0 to 100 (0 no effect, 100 complete control), 13 to 15 days): 100 | Plant response rating, Oat, Wild (wild oat (Avena fatua); [18]): 0 | Plant response rating, Oat, Wild (wild oat (Avena fatua); Preemergence, 62 g ai/ha, scale 0 to 100 (0 no effect, 100 complete control)): 0 | Plant response rating, Oat, Wild (wild oat (Avena fatua); Preemergence, 125 g ai/ha, scale 0 to 100, 0 no effect, 100 complete control): 30 | Oat, Wild plant response rating (wild oat (Avena fatua); Preemergence, 250 g ai/ha, 0 to 100 scale): 30

From patent US8952024B2, “Herbicidal pyrimidone derivatives” (E I du Pont de Nemours and Company, priority 2009, dated 2015)
